Laboratory results published in patent publication US12673975B2, “Cyclic peptide, cell scaffold material, cell separating material, and medium” (FUJIFILM Corporation, priority 2019, dated 2026).
Read-outs that look alike come from different tables or passages of the source. Starred links: 1 amine or outer side, 2 acyl side, 3 side chain; linkers in the order of their positions; H or OH if unused. Positions of bridges follow the written chain, without caps; N, C: chain ends. Non-standard residues stand in square brackets, D forms with d. Residues, ends and D or L forms follow the SMILES beside them. hCys = N[C@@H](CCS)C(=O)O; Dab = NCC[C@H](N)C(=O)O; X1 = O=C(C[*:2])[*:1]; X2 = O=C(C[*:1])[*:2]

Columns and labels:
human integrin αvβ5 = human integrin αvβ5 (Homo sapiens, UniProt P06756+P18084); assay: Evaluation of integrin binding property (surface plasmon resonance, Biacore 3000, immobilized cyclic peptide)
Summary of the method: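 Human αvβ5 (30-1,000 nM) flowed for 10 min at 25 °C over immobilized cyclic peptide in 20 mM HEPES, 150 mM NaCl, 5 mM MgCl2, pH 7.4, followed by 30 min running buffer and 0.5 M EDTA regeneration. Dissociation constant from peptide minus unimmobilized channel, scored into standard grades.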

[1] = Evaluation of molecule stability (alkali treatment, residual rate by LC/MS); format: physicochemical; details: for Stability (molecule stability, residual rate of the cyclic peptide rank): alkali treatment, residual rate by LC/MS; for Performance evaluation: Stability (residual rate of cyclic peptide after alkali treatment): 500 μM peptide aqueous solution plus equivalent of 1 M sodium hydroxide, 15° C., 3 hours, LC/MS peak area
Summary of the method: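 Stability read as percent of summed LC/MS peak area remaining versus untreated peptide (C18, 45 °C, 10 mM ammonium formate pH 3, ESI positive/negative). Treatment: 500 μM peptide in water plus an equivalent of 1 M NaOH, 15 °C for 3 hours.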

[2] = surface plasmon resonance, immobilized cyclic peptide, human integrin αvβ5, read-out: Binding activity (integrin binding property, dissociation constant rank)
[3] = SPR, 25° C., HEPES buffer with 5 mM magnesium chloride, integrin 30-1,000 nM, read-out: Performance evaluation: Binding activity (dissociation constant between the cyclic peptide and human integrin αvβ5)

Sequence of human integrin αvβ5 (P06756 31-1048): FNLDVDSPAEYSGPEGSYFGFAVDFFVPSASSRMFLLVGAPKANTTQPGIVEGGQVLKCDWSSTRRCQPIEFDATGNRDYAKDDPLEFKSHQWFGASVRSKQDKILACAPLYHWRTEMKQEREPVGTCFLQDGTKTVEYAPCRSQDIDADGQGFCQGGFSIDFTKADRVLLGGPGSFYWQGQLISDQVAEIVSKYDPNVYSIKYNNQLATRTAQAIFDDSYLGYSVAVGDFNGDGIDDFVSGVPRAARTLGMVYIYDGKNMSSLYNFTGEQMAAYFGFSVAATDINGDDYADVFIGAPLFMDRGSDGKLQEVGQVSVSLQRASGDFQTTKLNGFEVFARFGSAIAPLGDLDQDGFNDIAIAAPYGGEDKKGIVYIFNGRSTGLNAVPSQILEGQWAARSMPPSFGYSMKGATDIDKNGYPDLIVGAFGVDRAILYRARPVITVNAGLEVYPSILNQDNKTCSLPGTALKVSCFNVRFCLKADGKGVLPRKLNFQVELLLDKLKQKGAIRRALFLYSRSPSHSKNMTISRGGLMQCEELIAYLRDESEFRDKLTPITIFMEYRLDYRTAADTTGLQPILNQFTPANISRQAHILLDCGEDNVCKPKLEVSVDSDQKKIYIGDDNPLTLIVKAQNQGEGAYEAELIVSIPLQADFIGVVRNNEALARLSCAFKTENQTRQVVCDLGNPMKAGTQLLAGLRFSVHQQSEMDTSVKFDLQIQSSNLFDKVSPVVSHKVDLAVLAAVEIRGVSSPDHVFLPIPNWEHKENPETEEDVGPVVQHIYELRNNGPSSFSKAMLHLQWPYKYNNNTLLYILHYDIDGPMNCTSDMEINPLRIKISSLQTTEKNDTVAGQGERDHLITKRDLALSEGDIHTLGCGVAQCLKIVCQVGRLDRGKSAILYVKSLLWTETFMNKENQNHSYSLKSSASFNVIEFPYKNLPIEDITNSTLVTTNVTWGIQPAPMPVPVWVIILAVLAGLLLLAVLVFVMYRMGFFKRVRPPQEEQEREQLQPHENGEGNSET
Sequence of human integrin αvβ5 (P18084 24-799): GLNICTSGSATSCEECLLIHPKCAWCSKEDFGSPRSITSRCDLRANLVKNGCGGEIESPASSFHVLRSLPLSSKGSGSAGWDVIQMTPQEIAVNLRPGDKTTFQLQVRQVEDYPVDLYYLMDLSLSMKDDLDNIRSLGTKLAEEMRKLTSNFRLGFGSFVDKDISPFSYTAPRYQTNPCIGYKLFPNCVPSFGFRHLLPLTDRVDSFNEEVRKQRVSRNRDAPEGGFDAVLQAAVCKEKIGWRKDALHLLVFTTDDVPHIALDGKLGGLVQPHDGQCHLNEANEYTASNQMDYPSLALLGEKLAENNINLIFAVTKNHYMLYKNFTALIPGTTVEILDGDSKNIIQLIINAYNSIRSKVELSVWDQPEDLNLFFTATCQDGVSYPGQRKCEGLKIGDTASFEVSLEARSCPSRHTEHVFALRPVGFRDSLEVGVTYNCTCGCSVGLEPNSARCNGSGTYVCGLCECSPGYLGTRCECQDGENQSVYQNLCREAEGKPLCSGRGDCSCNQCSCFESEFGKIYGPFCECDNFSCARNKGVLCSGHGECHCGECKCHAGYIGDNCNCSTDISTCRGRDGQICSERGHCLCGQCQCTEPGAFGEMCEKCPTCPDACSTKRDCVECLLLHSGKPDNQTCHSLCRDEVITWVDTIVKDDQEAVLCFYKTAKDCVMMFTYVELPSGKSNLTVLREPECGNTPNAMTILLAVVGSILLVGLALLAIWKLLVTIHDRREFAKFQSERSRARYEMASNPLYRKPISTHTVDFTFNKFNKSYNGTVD

Structure (SMILES) | Kd (human integrin αvβ5; [2]) [nM] | Kd (human integrin αvβ5; [3]) [nM] | Stability (molecule stability, residual rate of the cyclic peptide rank) [1] | Performance evaluation: Stability (residual rate of cyclic peptide after alkali treatment) [1]
C[C@H](NC(=O)[C@H](CCCCN)NC(=O)[C@H](CCCCN)NC(=O)[C@@H](N)CCCCN)C(=O)N[C@H]1CCSCC(=O)NCC[C@@H](C(=O)N[C@@H](CCC(=O)O)C(=O)O)NC(=O)[C@H](CCCNC(=N)N)NC(=O)[C@H](Cc2ccc(O)cc2)NC(=O)[C@H](CC(N)=O)NC(=O)[C@H](CC(=O)O)NC(=O)CNC(=O)[C@H](CCCNC(=N)N)NC(=O)[C@@H]2CCCN2C(=O)[C@H](CCC(=O)O)NC1=O [Cyclic peptide 43, KKKA-(Hcy)-EPRGDNYR(Dab(acetyl))E] (H-KKKA[hCys]EPRGDNYR[Dab]E-OH; linker 5-14 via X2) |  | 50 to 100 |  | A (The residual rate of the cyclic peptide is 70% or more.)
CC[C@H](C)[C@@H]1NC(=O)[C@@H](NC(=O)[C@H](C)NC(=O)[C@H](CCCCN)NC(=O)[C@H](CCCCN)NC(=O)[C@@H](N)CCCCN)CCSCC(=O)NCC[C@@H](C(=O)N[C@@H](CC(=O)O)C(=O)O)NC(=O)[C@H](CCCNC(=N)N)NC(=O)[C@H](Cc2ccc(O)cc2)NC(=O)[C@H](CC(N)=O)NC(=O)[C@H](CC(=O)O)NC(=O)CNC(=O)[C@H](CCCNC(=N)N)NC(=O)[C@@H]2CCCN2C1=O [Cyclic peptide 30, KKKA-(Hcy)-IPRGDNYR(Dab(acetyl))D] (H-KKKA[hCys]IPRGDNYR[Dab]D-OH; linker 5-14 via X2) |  | < 50 |  | A (The residual rate of the cyclic peptide is 70% or more.)

Second part, led by results:

Kd (human integrin αvβ5; [2]) [nM] | Kd (human integrin αvβ5; [3]) [nM] | Structure (SMILES) | Stability (molecule stability, residual rate of the cyclic peptide rank) [1] | Performance evaluation: Stability (residual rate of cyclic peptide after alkali treatment) [1]
< 50 |  | CC(C)[C@@H]1NC(=O)[C@@H](NC(=O)[C@H](C)NC(=O)[C@H](CCCCN)NC(=O)[C@H](CCCCN)NC(=O)[C@H](CCCCN)NC(=O)[C@H](CCCCN)NC(=O)[C@H](CCCCN)NC(=O)[C@@H](N)CCCCN)CCSCC(=O)NCC[C@@H](C(=O)N[C@@H](C)C(=O)O)NC(=O)[C@H](C)NC(=O)[C@H](Cc2ccccc2)NC(=O)[C@H]([C@@H](C)O)NC(=O)[C@H](CC(=O)O)NC(=O)CNC(=O)[C@H](CCCNC(=N)N)NC(=O)[C@@H]2CCCN2C1=O [Cyclic peptide 112, KKKKKKA-(Hcy)-VPRGDTFA(Dab(acetyl))A] (H-KKKKKKA[hCys]VPRGDTFA[Dab]A-OH; linker 8-17 via X2) | A (The residual rate of the cyclic peptide is 70% or more.) | 
< 50 |  | CC(C)[C@@H]1NC(=O)[C@@H](NC(=O)[C@H](C)NC(=O)[C@H](CCCCN)NC(=O)[C@H](CCCCN)NC(=O)[C@H](CCCCN)NC(=O)[C@@H](N)CCCCN)CCSCC(=O)NCC[C@@H](C(=O)N[C@@H](C)C(=O)O)NC(=O)[C@H](C)NC(=O)[C@H](Cc2ccccc2)NC(=O)[C@H]([C@@H](C)O)NC(=O)[C@H](CC(=O)O)NC(=O)CNC(=O)[C@H](CCCNC(=N)N)NC(=O)[C@@H]2CCCN2C1=O [Cyclic peptide 110, KKKKA-(Hcy)-VPRGDTFA(Dab(acetyl))A] (H-KKKKA[hCys]VPRGDTFA[Dab]A-OH; linker 6-15 via X2) | A (The residual rate of the cyclic peptide is 70% or more.) | 
50 to 100 |  | CC[C@H](C)[C@@H]1NC(=O)[C@@H](NC(=O)CNC(=O)[C@H](CCCCN)NC(=O)[C@H](CCCCN)NC(=O)[C@@H](N)CCCCN)CCCCNC(=O)CSC[C@@H](C(=O)N[C@@H](C)C(=O)O)NC(=O)[C@H](CCCNC(=N)N)NC(=O)[C@H](Cc2ccccc2)NC(=O)[C@H]([C@@H](C)O)NC(=O)[C@H](CC(=O)O)NC(=O)CNC(=O)[C@H](CCCNC(=N)N)NC(=O)[C@@H]2CCCN2C1=O [Cyclic peptide 140, KKKG(Lys(acetyl))IPRGDTFR(C)A] (H-KKKGKIPRGDTFRCA-OH; linker 5-14 via X1) | C (The residual rate of the cyclic peptide is 30% or more and less than 50%.) | 
